Active and inactive are the calls of the source. No cut-off for these calls is given here.
Legend:
Histone deacetylase [1] = assay: Inhibition of HDAC in HeLa cells after 30 mins by fluorescent activity assay; type: cell-based, Homo sapiens
Histone deacetylase [2] = assay: Inhibition of HDAC in HeLa cells in presence of DTT after 30 mins by fluorescent activity assay; type: cell-based, Homo sapiens
MCF7 [3] = assay: Increase in accumulation of acetylated histone H4 in human MCF7 cells after 14 hrs by Western blot analysis; type: functional, cell-based
MCF7 [4] = assay: Increase in accumulation of acetylated histone H4 in human MCF7 cells in presence of 100 uM folic acid after 14 hrs by Western blot analysis; type: functional, cell-based
MCF7 [5] = assay: Growth inhibition of human MCF7 cells after 72 hrs by Alamar Blue assay; type: functional, cell-based

SMILES	IC50 (Histone deacetylase [1]) [µM]	IC50 (Histone deacetylase [2]) [µM]	Activity (MCF7 [3])	Activity (MCF7 [4])	Activity (MCF7 [5])
NC1=NC(=O)C2N=C(CNc3ccc(C(=O)N[C@@H](CCC(=O)NCCCCCCS)C(=O)O)cc3)C=NC2=N1 (some centres not stated)	21				
NC1=NC(=O)C2N=C(CNc3ccc(C(=O)N[C@@H](CCC(=O)NCCCCCCSSCCCCCCNC(=O)CC[C@H](NC(=O)c4ccc(NCC5=NC6C(=O)N=C(N)N=C6N=C5)cc4)C(=O)O)C(=O)O)cc3)C=NC2=N1 (some centres not stated)		9			
NC1=NC(=O)C2N=C(CNc3ccc(C(=O)N[C@@H](CCC(=O)NCCSSCCCCCCC(=O)Nc4ncc(-c5ccccc5)s4)C(=O)O)cc3)C=NC2=N1 (some centres not stated)		0.27	Active	inactive	Dose-dependent effect
NC1=NC(=O)C2N=C(CNc3ccc(C(=O)N[C@@H](CCC(=O)NCCOCCOCCSSCCCCCCC(=O)Nc4ncc(-c5ccccc5)s4)C(=O)O)cc3)C=NC2=N1 (some centres not stated)		3			

Source: ChEMBL document CHEMBL1149539, “Design, synthesis, and biological activity of folate receptor-targeted prodrugs of thiolate histone deacetylase inhibitors” (Bioorg Med Chem Lett, 2007)
